Measured values: patent publication US8450313B2, “2,3-diaryl- or heteroaryl-substituted 1,1,1-trifluoro-2-hydroxypropyl compounds” (Hoffmann-La Roche Inc., priority 2009, dated 2013)

Biological target: T1, full length human recombinant glucocorticoid receptor (Homo sapiens, UniProt P04150)
T1 construct: It contains some partially purified full length human recombinant glucocorticoid receptor; purchased Panvera/Invitrogen PV4302
T1 sequence (P04150 1-777): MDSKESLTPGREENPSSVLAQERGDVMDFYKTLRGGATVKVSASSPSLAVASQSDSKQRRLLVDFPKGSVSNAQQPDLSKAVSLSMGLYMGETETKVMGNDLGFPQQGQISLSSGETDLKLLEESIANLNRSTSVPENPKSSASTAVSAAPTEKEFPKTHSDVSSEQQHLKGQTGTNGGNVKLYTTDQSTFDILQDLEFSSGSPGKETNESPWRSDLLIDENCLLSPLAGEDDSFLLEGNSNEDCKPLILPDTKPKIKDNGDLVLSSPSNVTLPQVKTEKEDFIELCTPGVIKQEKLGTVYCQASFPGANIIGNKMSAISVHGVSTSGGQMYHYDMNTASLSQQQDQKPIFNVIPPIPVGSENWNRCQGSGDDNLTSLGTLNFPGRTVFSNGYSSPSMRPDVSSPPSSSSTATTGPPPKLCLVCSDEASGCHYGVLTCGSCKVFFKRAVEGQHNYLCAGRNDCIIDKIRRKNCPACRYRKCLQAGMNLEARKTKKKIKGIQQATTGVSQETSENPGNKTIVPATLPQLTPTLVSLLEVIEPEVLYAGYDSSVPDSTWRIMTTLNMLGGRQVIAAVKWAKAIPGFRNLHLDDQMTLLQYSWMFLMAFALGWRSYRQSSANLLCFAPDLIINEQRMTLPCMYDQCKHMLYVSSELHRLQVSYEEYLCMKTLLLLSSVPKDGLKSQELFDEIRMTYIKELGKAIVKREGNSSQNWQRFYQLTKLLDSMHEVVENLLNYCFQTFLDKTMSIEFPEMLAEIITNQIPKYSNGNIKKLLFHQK
Experiment: Glucocorticoid Receptor Binding Assay (Glucocorticoid Receptor Competitor Assay far red kit, fluorescence polarization)
Conditions: competition with fluorescent GR ligand Fluormone GS Far Red, 3 hours at 22° C., pH 7.4; Ki calculated from IC50 by Cheng-Prusoff
Outline: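 Compounds in serial dilution (from intermediate 4.2% DMSO stock) displace Fluormone GS Far Red from full-length human recombinant GR with stabilizing peptide, pH 7.4, incubated 3 hours at 22° C dark. Polarized fluorescence (610–660 nm) gives IC50 via sigmoidal fit, converted to Ki by Cheng-Prusoff.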

Work on `C[C@H](c1ccc(Oc2ccc(OCC(=O)O)cc2)cc1Cl)[C@@](O)(c1ccc2c(c1)n(C)c(=O)n2C)C(F)(F)F` (stereo in doubt) [Example 93, (4-{3-Chloro-4-[2-(1,3-dimethyl-2-oxo-2,3-dihydro-1H-benzoimidazol-5-yl)-3,3,3-trifluoro-2-hydroxy-1-methyl-propyl]-phenoxy}-phenoxy)-acetic acid] yielded a Ki of 0.3 nM.

For `C[C@H](c1ccc(Oc2ncc(C(=O)O)cn2)cc1Cl)[C@@](O)(c1ccc2oc(=O)n(C)c2c1)C(F)(F)F` (relative stereo) [Example 203, 2-{3-Chloro-4-[3,3,3-trifluoro-2-hydroxy-1-methyl-2-(3-methyl-2-oxo-2,3-dihydro-benzooxazol-5-yl)-propyl]-phenoxy}-pyrimidine-5-carboxylic acid], the Ki was 1.8 nM.

Compound `C[C@H](c1ccc(Oc2ccc(Cl)cc2C(=O)O)cc1Cl)[C@@](O)(c1ccc2c(c1)n(C)c(=O)n2C)C(F)(F)F` (stereo in doubt) [Example 100, 5-Chloro-2-{3-chloro-4-[2-(1,3-dimethyl-2-oxo-2,3-dihydro-1H-benzoimidazol-5-yl)-3,3,3-trifluoro-2-hydroxy-1-methyl-propyl]-phenoxy}-benzoic acid] has a Ki of 1.9 nM.

With `C[C@H](c1ccc(Oc2ccc(C(=O)O)c(F)c2)cc1Cl)[C@@](O)(c1ccc2c(c1)N(C)C(=O)CO2)C(F)(F)F` [Example 57] the Ki was 1.3 nM.

Compound `C[C@@H](c1cc(-c2ccc(C(=O)O)cc2)ccc1Cl)[C@](O)(c1ccc2c(c1)N(C)C(=O)CO2)C(F)(F)F` (relative stereo) [Example 17, 4′-Chloro-3′-[3,3,3-trifluoro-2-hydroxy-1-methyl-2-(4-methyl-3-oxo-3,4-dihydro-2H-benzo[1,4]oxazin-6-yl)-propyl]-biphenyl-4-carboxylic acid] has a Ki of 55.6 nM.

`C[C@H](c1ccc(Oc2ccc(C(=O)O)c(Cl)c2)cc1Cl)[C@@](O)(c1ccc2[nH]c(=O)cc(C(F)(F)F)c2c1)C(F)(F)F` (stereo in doubt) [Example 140, 2-Chloro-4-{3-chloro-4-[3,3,3-trifluoro-2-hydroxy-1-methyl-2-(2-oxo-4-trifluoromethyl-1,2-dihydro-quinolin-6-yl)-propyl]-phenoxy}-benzoic acid] gave a Ki of 22 nM.

`C[C@H](c1ccc(C(=O)NCC(=O)O)cc1Cl)[C@@](O)(c1ccc2oc(=O)n(C)c2c1)C(F)(F)F` (stereo in doubt) [Example 232, {3-Chloro-4-[3,3,3-trifluoro-2-hydroxy-1-methyl-2-(3-methyl-2-oxo-2,3-dihydrobenzooxazol-5-yl)-propyl]-benzoylamino}-acetic acid] was tested, and the Ki was 92.4 nM.

Compound `CCOC(=O)c1ccc(Oc2ccc([C@@H](C)[C@@](O)(c3ccc4c(c3)N(C)C(=O)CO4)C(F)(F)F)c(Cl)c2)nc1C(F)(F)F` (racemic) [Example 214, 6-{3-Chloro-4-[3,3,3-trifluoro-2-hydroxy-1-methyl-2-(4-methyl-3-oxo-3,4-dihydro-2H-benzo[1,4]oxazin-6-yl)-propyl]-phenoxy}-2-trifluoromethyl-nicotinic acid ethyl ester] has a Ki of 4.1 nM.

`COC(=O)c1cnc(Oc2ccc([C@@H](C)[C@@](O)(c3ccc4c(c3)N(C)C(=O)CO4)C(F)(F)F)c(Cl)c2)cc1Cl` (racemic) [Example 210, 4-Chloro-6-{3-chloro-4-[3,3,3-trifluoro-2-hydroxy-1-methyl-2-(4-methyl-3-oxo-3,4-dihydro-2H-benzo[1,4]oxazin-6-yl)-propyl]-phenoxy}-nicotinic acid methyl ester] gave a Ki of 1.5 nM.

`C[C@@H](c1ccc(-c2cccc(C(=O)O)c2)cc1Cl)[C@](O)(c1ccc2c(c1)N(C)C(=O)CO2)C(F)(F)F` (stereo in doubt) [Example 23, 3′-Chloro-4′-[3,3,3-trifluoro-2-hydroxy-1-methyl-2-(4-methyl-3-oxo-3,4-dihydro-2H-benzo[1,4]oxazin-6-yl)-propyl]-biphenyl-3-carboxylic acid] showed a Ki of 1.3 nM.

Work on `CCN1C(=O)COc2ccc([C@](O)([C@H](C)c3ccc(Oc4cc(C(F)(F)F)c(C(=O)O)cn4)cc3Cl)C(F)(F)F)cc21` (relative stereo) [Example 68, 6-{3-Chloro-4-[2-(4-ethyl-3-oxo-3,4-dihydro-2H-benzo[1,4]oxazin-6-yl)-3,3,3-trifluoro-2-hydroxy-1-methyl-propyl]-phenoxy}-4-trifluoromethyl-nicotinic acid] yielded a Ki of 59.8 nM.

Work on `C[C@H](c1ccc(Br)cc1Cl)[C@@](O)(c1ccc2c(c1)oc(=O)n2C)C(F)(F)F` (relative stereo) [Example 133, 6-[2-(4-Bromo-2-chloro-phenyl)-1-hydroxy-1-trifluoromethyl-propyl]-3-methyl-3H-benzooxazol-2-one] yielded a Ki of 1.6 nM.

With `COC(=O)c1cnc(Oc2ccc([C@@H](C)[C@@](O)(c3ccc4oc(=O)n(C)c4c3)C(F)(F)F)c(Cl)c2)c(Cl)c1` (relative stereo) [Example 175, 5-Chloro-6-{3-chloro-4-[3,3,3-trifluoro-2-hydroxy-1-methyl-2-(3-methyl-2-oxo-2,3-dihydro-benzooxazol-5-yl)-propyl]-phenoxy}-nicotinic acid methyl ester] the Ki was 1.8 nM.

`C[C@@H](c1ccc(Oc2ccc(C(=O)O)cn2)cc1Cl)[C@](O)(c1ccc2c(c1)n(C)c(=O)n2C)C(F)(F)F` (stereo in doubt) [Example 101, 6-{3-Chloro-4-[2-(1,3-dimethyl-2-oxo-2,3-dihydro-1H-benzoimidazol-5-yl)-3,3,3-trifluoro-2-hydroxy-1-methyl-propyl]-phenoxy}-nicotinic acid] was tested, and the Ki was 1.1 nM.

In the case of `CC(c1ccc(Oc2ccc(C(=O)O)cc2F)cc1Cl)C(O)(c1ccc2c(c1)n(C)c(=O)n2C)C(F)(F)F` (stereo not shown) [Example 86, 4-{3-Chloro-4-[2-(1,3-dimethyl-2-oxo-2,3-dihydro-1H-benzoimidazol-5-yl)-3,3,3-trifluoro-2-hydroxy-1-methyl-propyl]-phenoxy}-3-fluoro-benzoic acid], the Ki is reported as 2.7 nM.

For `C[C@H](c1ccc(Oc2ccc(C(=O)O)cn2)cc1Cl)[C@@](O)(c1ccc2c(c1)N(C)C(=O)CO2)C(F)(F)F` (stereo in doubt) [Example 205, 6-{3-Chloro-4-[3,3,3-trifluoro-2-hydroxy-1-methyl-2-(4-methyl-3-oxo-3,4-dihydro-2H-benzo[1,4]oxazin-6-yl)-propyl]-phenoxy}-nicotinic acid], the Ki was 2.5 nM.

Work on `C[C@H](c1ccc(OC(C)(C)C(=O)O)cc1Cl)[C@@](O)(c1ccc2oc(=O)n(C)c2c1)C(F)(F)F` (stereo in doubt) [Example 230, 2-{3-Chloro-4-[3,3,3-trifluoro-2-hydroxy-1-methyl-2-(3-methyl-2-oxo-2,3-dihydro-benzooxazol-5-yl)-propyl]-phenoxy}-2-methyl-propionic acid] yielded a Ki of 35.3 nM.

Work on `COC(=O)c1ccc(Oc2ccc(Cl)c([C@H](C)[C@](O)(c3ccc4c(c3)N(C)C(=O)CO4)C(F)(F)F)c2)cc1` (relative stereo) [Example 7, 4-{4-Chloro-3-[3,3,3-trifluoro-2-hydroxy-1-methyl-2-(4-methyl-3-oxo-3,4-dihydro-2H-benzo[1,4]oxazin-6-yl)-propyl]-phenoxy}-benzoic acid methyl ester] yielded a Ki of 11.1 nM.

`C[C@@H](c1ccc(Oc2ccc(C(=O)O)c(Cl)c2)cc1Cl)[C@](O)(c1ccc2c(c1)n(C)c(=O)n2C)C(F)(F)F` (stereo in doubt) [Example 90, 2-Chloro-4-{3-chloro-4-[2-(1,3-dimethyl-2-oxo-2,3-dihydro-1H-benzoimidazol-5-yl)-3,3,3-trifluoro-2-hydroxy-1-methyl-propyl]-phenoxy}-benzoic acid] gave a Ki of 0.4 nM.

With `COC(=O)c1cnc(Oc2ccc([C@@H](C)[C@@](O)(c3ccc4c(c3)N(C)C(=O)CO4)C(F)(F)F)c(Cl)c2)c(Cl)c1` (racemic) [Example 212, 5-Chloro-6-{3-chloro-4-[3,3,3-trifluoro-2-hydroxy-1-methyl-2-(4-methyl-3-oxo-3,4-dihydro-2H-benzo[1,4]oxazin-6-yl)-propyl]-phenoxy}-nicotinic acid methyl ester] the Ki was 1 nM.

`C[C@H](c1ccc(Oc2cnc(C(=O)O)cn2)cc1Cl)[C@@](O)(c1ccc2c(c1)N(C)C(=O)CO2)C(F)(F)F` (racemic) [Example 228, 5-{3-Chloro-4-[3,3,3-trifluoro-2-hydroxy-1-methyl-2-(4-methyl-3-oxo-3,4-dihydro-2H-benzo[1,4]oxazin-6-yl)-propyl]-phenoxy}-pyrazine-2-carboxylic acid] showed a Ki of 10.6 nM.

`C[C@H](c1ccc(Oc2ccc(C(=O)O)c(Cl)c2)cc1Cl)[C@@](O)(c1ccc2c(c1)OCC(=O)N2C)C(F)(F)F` (relative stereo) [Example 160, 2-Chloro-4-{3-chloro-4-[3,3,3-trifluoro-2-hydroxy-1-methyl-2-(4-methyl-3-oxo-3,4-dihydro-2H-benzo[1,4]oxazin-7-yl)-propyl]-phenoxy}-benzoic acid] gave a Ki of 1.3 nM.
